Assay results taken from patent publication US20240299285A1, “PERSONAL CARE COMPOSITION” (The Procter & Gamble Company, priority 2023, published 2024).

Experiment: Solubility Method (cooling/heating cycles, % transmittance, visual precipitate check)
Assay type: physicochemical
Details: SLT:SMLT 10.5:1, co-surfactant 1 % or 4 %, pH 5.2
Description: This method can be used to determine the solubility characteristics of a material (e.g., an acyl taurate) in a composition. The method uses heating and cooling cycles to simulate environmental conditions commonly experienced by a personal care product and accelerate the processes that can lead to product instability.
The test composition (e.g., an aqueous surfactant composition consisting of an acyl taurate surfactant and an N-alkyl acyl taurate surfactant and/or a co-surfactant, and/or a cationic polymer and water) is placed in a closed container to prevent evaporation and heated at 40° C. for a minimum of 30 minutes or until the composition is visually clear & free of precipitates. One mL of the test solution is added to a Crystal-16 vial, closed with a basic cap and placed into a Technobis Crystallization Systems Crystal16® Model 2.2 or equivalent. The % transmittance readings are set to record 1 measurement every 300 seconds. The vials are cooled to 5° C. at a rate of 0.25° C./min and held at 5° C. for 8 hours (cooling cycle). The vials are then heated to 20° C. at a rate of 0.25° C./min and held at 20° C. for 8 hours (heating cycle). […] When the final % T recorded at the end of the heating cycle is greater than or equal to 90% and no precipitate is observed the sample is considered soluble.

Row | Substance | effect of co-surfactant on acyl taurate (SLT) solubility
1 | cocamidopropyl hydroxysultaine [CAPHS] | did not provide the desired solubility
2 | sodium lauroamphoacetate | did not provide the desired solubility
